Paper PMC9198986, “Controlling Doxorubicin Release from a Peptide Hydrogel through Fine-Tuning of Drug–Peptide Fiber Interactions” (Biomacromolecules, 2022)
Where no end group is shown, it is not given here.

Legend:
[1] = Gels biodegradability: fraction of intact peptide after incubation in 50% FBS (RP-HPLC); format: in vitro ADME, bovine; conditions: 14 mM hydrogel, 37 °C; for susceptibility to enzymatic degradation, rank: up to 72 h; for level of degradation up to 12 h: first 12 h
Protocol: Peptide hydrogels (14 mM) were incubated in either PBS or 50% FBS ddH2O solution at 37 °C. At selected time points (2, 5, 10, 24, 48, and 72 h), the gels were disassembled by dilution to 1 mg mL^–1 in a 1% trifluoroacetic acid (TFA) water/acetonitrile (50/50 v/v) solution. Reversed phase-high-performance liquid chromatography (RP-HPLC) analyses were conducted at 25 °C on an Ultimate 3000 HPLC system (Dionex) equipped with a variable wavelength UV detector (wavelength used 210 nm) and a gradient pump. Separation was performed on a Phenomenex Jupiter 4μ Proteo column 90A° (250 × 4.66 mm) fitted with a 300 Guard Cartridge (4.3 × 10 mm). A flow rate of 1 mL min^–1 was used for all separations. The mobile phase consisted of a mixture of water: TFA(0.1%)—solvent A and acetonitrile/TFA(0.1%)—solvent B. An elution gradient of 90% solvent A/10% solvent B to 30% solvent A/70% solvent B over 45 min was used. 100 μL of sample aliquots was injected into the column using an ACC-3000 autosampler. Data were analyzed using Chromoleon 6.80 software. The peptide stability was expressed as a fraction of intact peptide present in the sample at sampling time t using the following equation [drawing 1] 1 where AUCPBS (t) and AUCFBS (t) are the intact peptide peak areas under the HPLC curves obtained at the sampling time t for hydrogels incubated with PBS and 50% FBS ddH2O solutions, respectively.
We also examined the susceptibility of these peptide hydrogels to enzymatic degradation by incubating them in a 50 FBS/50 PBS media mixture. At the selected time points, the samples were homogenized (release buffer + remaining hydrogel), and the fraction of intact, that is, nondegraded peptide was estimated via HPLC. FBS contains a wide array of proteases and other enzymes that will degrade proteins and peptides. […] Dox release was also measured using a 50 FBS/50 PBS mixture as release media. […] From 24 h onward, similar release profiles were obtained in the presence and absence of FBS, probably due to the fact that by then most of the Dox has been released, and the supernatant release media is reaching saturation (Figure S5).

3T3 murine fibroblasts = test: 3T3 fibroblast viability under hydrogel inserts (PicoGreen dsDNA); format: cell-based, mouse; conditions: non-loaded 14 mM hydrogel in insert above 3T3 cells; for cell viability with non-loaded hydrogels: over 48 h, PicoGreen dsDNA
Protocol: 3T3 murine fibroblasts were seeded (1.5 × 10^4 cells cm^–2) in 12-well cell culture plates and 1.5 mL of DMEM supplemented with 10% FBS added per well. 400 μl of hydrogels (14 mM) with and without Dox (240 μM) were plated within 12-well cell culture plate inserts (ThinCert, Greiner Bio-One, pore size 1 μm) and placed above the cells. At selected time points, cells were retrieved from the cell culture wells, and the amount of double-stranded DNA (dsDNA) content was measured using PicoGreen dsDNA assay (Life Technologies, Carlsbad, CA, USA) following the manufacturer’s protocol.
Finally, we confirmed that the Dox released from the hydrogels was still active by investigating its effect on 3T3 mouse fibroblasts. This was achieved by culturing the fibroblasts in 2D in cell culture wells and placing the hydrogels (loaded and non-loaded with Dox) in inserts equipped with porous membranes above the cells (see schematics in Figure 6). This experimental setup was used to avoid a direct contact between the hydrogels and the cells but still allow the drug to diffuse from the hydrogels into the cell culture media. Dox is known to affect cell proliferation and viability via DNA intercalation and inhibition of topoisomerase II.[24],[25] Therefore, at the selected time points, the effect of Dox on fibroblasts viability was evaluated by measuring the total amount of double-stranded DNA (dsDNA), which is directly proportional to the number of live cells present.

Row | Sequence | level of degradation ([1]; RP-HPLC) | peptide degraded ([1]; after 5 h, RP-HPLC UV 210 nm, intact peak area vs PBS incubation) [%] | susceptibility to enzymatic degradation, rank ([1]; RP-HPLC) | level of degradation up to 12 h ([1]; RP-HPLC) | hydrogel degradation at later times ([1]; >24 h, RP-HPLC) | cell viability with non-loaded hydrogels (3T3 murine fibroblasts) | dsDNA detected after 48 h as % of the amount at t = 0 (3T3 murine fibroblasts; DMEM 10% FBS, 48 h, PicoGreen) [%]
1 | FEFKFEFK [F8] | minimal degradation | – | – | – | – | good cell viabilities | –
2 | FEFKFEFKK [F8K] | minimal degradation | – | least susceptible | – | – | good cell viabilities | –
3 | FEFEFKFE [FE] | – | – | – | low levels of degradation | more substantial | good cell viabilities | –

Further lines, with some results ahead:

Row | level of degradation ([1]; RP-HPLC) | peptide degraded ([1]; after 5 h, RP-HPLC UV 210 nm, intact peak area vs PBS incubation) [%] | susceptibility to enzymatic degradation, rank ([1]; RP-HPLC) | level of degradation up to 12 h ([1]; RP-HPLC) | hydrogel degradation at later times ([1]; >24 h, RP-HPLC) | Sequence | cell viability with non-loaded hydrogels (3T3 murine fibroblasts) | dsDNA detected after 48 h as % of the amount at t = 0 (3T3 murine fibroblasts; DMEM 10% FBS, 48 h, PicoGreen) [%]
4 | – | ~40 | most susceptible | – | – | KFEFKFEFKK [KF8K] | good cell viabilities | –
5 | – | – | – | low level of degradation | – | FKFEFKFK [FK] | some level of cytotoxicity | 40
